Assay results from patent US20170143748A1, “ANTI-TUMOR PHARMACEUTICAL APPLICATION OF PENTACYCLIC TRITERPENE SAPONIN COMPOUNDS OF SZECHUAN MELANDIUM ROOT” (priority 2014, published 2017).

Assays:
[1] = system: BGC823 human gastric adenocarcinoma; assay: Anti-BGC823 human gastric adenocarcinoma in BALB/c (nu/nu) nude mice; assay type: in vivo; parameters: tumor volume of BGC823-bearing nude mice / Tumor mass: unit not given here; conditions: for body weight of BGC823-bearing nude mice / tumor volume of BGC823-bearing nude mice: mg/kg BW: total saponins 1.5, Compound 1, combination 1 & 19, 5-FU 20, Sc; for body weight of BGC823-bearing nude mice: in g (unit assumed)
Experimental: Human resources gastric adenocarcinoma cell line BGC823 was cultured in the same condition as the experiment 4.
The body weight and the tumor volume were measured and recorded weekly. The tumor volume was calculated according to the formula below.
Tumors were departed and weighed. Tumor Index and inhibition rate were calculated as below: […]

HepG2 = assay: MTT inhibition of tumor cells in vitro (Example 3); assay type: cell-based, Human; conditions: 40 μg/mL
BGC823 = assay: MTT inhibition of tumor cells in vitro (Example 3); assay type: cell-based, Human; conditions: 40 μg/mL
Experimental: (§1) Human resources tumor cell line […], […], HT29, MCF-7 and A875 were provided by Cancer Hospital, Chinese Academy of Medical Sciences.
(§2) Cells were passaged every 2 or 3 days, and all the experiments were carried out on exponentially growing cells.
(§3) All cells were cultured in a humidified atmosphere (5% CO2 and […]), and passaged every 2 or 3 days. Cells were harvested on exponentially growing phase, and cell suspension was prepared with 2×10^4 cells/mL, added with 100 μL per well of 96-well plates, and cultured for 24 h in incubator. 100 μL medium without cells was added per well as blank group.
(§4) Compound (1), (2), (3), (4), (7) or (8) was dissolved in DMSO respectively, and diluted with 1640 medium at a final concentration of 400 μg/mL, so as to that of the Cisplatin. Cells were divided into 9 groups, they were blank group, model group, Compound (1), (2), (3), (4), (7) and (8) groups, and Cisplatin group as the positive one, 6 wells per group.
(§5) Before drug administration, supernatant of each well was removed and fresh 1640 medium was added, 180 μL per well. Compounds and Cisplatin were added with 20 μL per well respectively at a final concentration of 40 μg/mL. Wells of blank and model groups were added with 0.5% DMSO, 20 μL per well. 48 hours later, 20 μL MTT was added per well and continued to culture for 4 hours, then the supernatant was replaced carefully and DMSO was added with 150 μL per well to end the experiment. The 96-well plates were shaken for 10 mins and read the absorbance at 490 nm. The Inhibition rate was calculated.
(§6) Inhibition rate=[(ODmodel−ODblank)−(ODdrugs−ODblank)]/(ODmodel−ODblank)×100%
(§7) The MTT experiment was repeated three times.

HT29 = assay: MTT inhibition of tumor cells in vitro (Example 3); assay type: cell-based, Human; conditions: 40 μg/mL
Experimental: as §1, §2, §3, §4, §5, §6, §7

MCF-7 = assay: MTT inhibition of tumor cells in vitro (Example 3); assay type: cell-based, Human; conditions: 48 hours
Experimental: as §1, §2, §3, §4, §5, §6, §7

A875 = assay: MTT inhibition of tumor cells in vitro (Example 3); assay type: cell-based, Human; conditions: 48 hours
Experimental: as §1, §2, §3, §4, §5, §6, §7

HepG2 human heptoma = assay: Anti-HepG2 human heptoma in BALB/c (nu/nu) nude mice; conditions: for body weight of HepG2-bearing nude mice / tumor volume of HepG2-bearing nude mice: mg/kg BW: total saponins 1.5, Compound 1, combination 1 & 39, Cytoxan 40, Sc
Experimental: 70 male BALB/c (nu/nu) nude mice (18-20 g, License NO. SCXK (BJ) 2009-0017, National Institutes for Food and Drug Control.) were adaptively bred for one week, and then used in the following experiment.
Human resources hepatoma cell line HepG2 was cultured in RPMI-1640 medium containing 100 U/mL Penicillin and 100 μg/mL Streptomycin with 10% fetal bovine serum and maintained at 37° C. in a humidified atmosphere (5% CO2 and […]).
70 BALB/c (nu/nu) nude mice were adaptively bred for 1 week, HepG2 cells were inoculated subcutaneously into the back of nude mice, 1×10^7 cells per mouse. […] 3 days after inoculation, mice of every therapeutic group were all given the relevant compounds or drugs for 3 weeks, and others were given isodose physiological saline.
The body weight and the size of tumor were measured and recorded weekly. The tumor volume was calculated with the formula below:
tumor volume V=π/6×a×b^2 (a, b means the transverse and longitudinal length of tumor)
At the end of administration, mice were fastened for 8 hours, weighed the fasting body weight, dropped off eyeball to collect blood, centrifuged and collected serum for next experiment. The tumors were departed and weighed. Tumor Index and inhibition rate were calculated as below:
Tumor Index=Tumor mass (mg)/body weight of animal (g)
Inhibition rate=(Average tumor massControl group−Average tumor massadministration group)/Average tumor massControl group×100%
Mice in the model group were injected with sterile water (10 ml/kg BW), Sc. All the animals were treated at 9 am for 3 weeks.
Determination of body weights: Body weights of animals were weighed and recorded once a week.
Tumor measurement: The transverse and longitudinal lengths of tumor were measured with vernier caliper weekly.
End of the experiment: After mice being administrated for 3 weeks (21 days), the experiment was terminated.

O=c1[nH]cc(F)c(=O)[nH]1 [Compound 5-FU, 5-FU, reference compound]
body weight of BGC823-bearing nude mice ([1]; 0 W): 20.20 ± 1.23 | tumor volume of BGC823-bearing nude mice ([1]; 1 W): 931.38 ± 623.32 | body weight of BGC823-bearing nude mice ([1]; 1 W): 19.50 ± 1.51 | tumor volume of BGC823-bearing nude mice ([1]; 2 W): 1262.33 ± 764.46 | body weight of BGC823-bearing nude mice ([1]; 2 W): 18.20 ± 1.81 | tumor volume of BGC823-bearing nude mice ([1]; 3 W): 2212.36 ± 1196.96 | body weight of BGC823-bearing nude mice ([1]; 3 W): 16.70 ± 2.20 | Inhibition rate ([1]; BGC823-bearing nude mice, after 3 weeks, from average tumor mass vs model): 54.85% | Tumor index ([1]; BGC823-bearing nude mice, after 3 weeks, tumor mass/body weight): 0.08 ± 0.04

COC(=O)C1CC(O[C@H]2CC[C@]3(C)[C@H]4C=CC5[C@@H]6CC(C)(C)CC[C@]6(C(=O)OC6OC(C)C(OC(=O)/C=C\c7ccc(C)cc7)C(OC(C)=O)C6OC6CC(C)C(O)C(O)C6O)[C@H](O)C[C@@]5(C)[C@]4(C)CC[C@H]3[C@]2(C)C=O)C(OC2OC(CO)C(O)C(O)C2O)C(OC2OCC(O)C(O)C2O)C1O (stereo partly shown) [Compound (4), sinocrassuloside IV]
inhibition at 40 µg/mL (HepG2; Homo sapiens, HepG2, 48 h, read-out: Inhibition rate, HepG2): 65.7 ± 1.05% | inhibition at 40 µg/mL (BGC823; Homo sapiens, BGC-823, 48 h, read-out: Inhibition rate, BGC823): 92.4 ± 6.24% | inhibition at 40 µg/mL (HT29; Homo sapiens, HT-29, 48 h, read-out: Inhibition rate, HT29): 90.6 ± 5.6% | inhibition at 40 µg/mL (MCF-7; Homo sapiens, MCF7, 40 μg/mL, read-out: Inhibition rate, MCF-7): 56.2 ± 1.96% | inhibition at 40 µg/mL (A875; Homo sapiens, A875, 40 μg/mL, read-out: Inhibition rate, A875): 70.5 ± 9.76%

CCCCOC(=O)C1OC(O[C@H]2CC[C@]3(C)[C@H]4CC=C5[C@@H]6CC(C)(C)CC[C@]6(C(=O)OC6OC(C)C(OC(=O)/C=C\c7ccc(OC)cc7)C(OC(C)=O)C6OC6OC(C)C(O)C(O)C6O)[C@H](O)C[C@@]5(C)[C@]4(C)CC[C@H]3[C@]2(C)C=O)C(OC2OC(CO)C(O)C(O)C2O)C(OC2OCC(O)C(O)C2O)C1O (stereo partly shown) [Compound (8), sinocrassuloside XIII]
Inhibition rate, HepG2 (HepG2; 48 hours): 41.25 ± 1.27% | Inhibition rate, BGC823 (BGC823; 48 hours): 56.00 ± 7.90% | Inhibition rate, HT29 (HT29; 48 hours): 77.22 ± 6.17% | Inhibition rate, MCF-7 (MCF-7; 40 μg/mL): 61.32 ± 11.67% | Inhibition rate, A875 (A875; 40 μg/mL): 55.32 ± 13.35%

O=P1(N(CCCl)CCCl)NCCCO1 (stereo not shown) [Cytoxan, reference compound]
body weight of HepG2-bearing nude mice (HepG2 human heptoma; 0 W): 19.20 ± 0.63 | body weight of HepG2-bearing nude mice (HepG2 human heptoma; 1 W): 18.50 ± 1.08 | tumor volume of HepG2-bearing nude mice (HepG2 human heptoma; 1 W): 988.47 ± 705.60 | body weight of HepG2-bearing nude mice (HepG2 human heptoma; 2 W): 16.00 ± 1.41 | tumor volume of HepG2-bearing nude mice (HepG2 human heptoma; 2 W): 1220.93 ± 881.80 | body weight of HepG2-bearing nude mice (HepG2 human heptoma; 3 W): 14.70 ± 1.34 | tumor volume of HepG2-bearing nude mice (HepG2 human heptoma; 3 W): 1593.79 ± 955.17 | Inhibition rate (HepG2 human heptoma; HepG2-bearing nude mice, after 3 weeks, from average tumor mass vs model): 70.46% | Tumor index (HepG2 human heptoma; HepG2-bearing nude mice, after 3 weeks, tumor mass/body weight): 0.06 ± 0.02
